One test deals with KU812 leukemic cells. The experiment in a line: In vivo treatment of nude mice injected s.c. with KU812 leukemic cells. Also on record: species or system CD1 nu/nu mice. How it is done: Seven to 9 week-old female CD1 nu/nu mice purchased at Charles River Breedin Laboratories (Calco, Italy) are kept under standard laboratory conditions according to the guidelines of the National Cancer Institutes, Milan, Italy. This study is approved by the institutional ethics committee for laboratory animals used in experimental research. KU812 bcr/abl positive cell line is injected (50×10^6 cells per animal) subcutaneously in the left flank of the animal. Oral treatment is administered through a syringe connected to a soft plastic tube introduced in esophagus (gavage). Tumor weight (TW) and total weight are monitored every 3-4 days. TW is calculated by the formula TW [mg]=(d^2×D), where d and D are the shortest and longest diameters of the tumor, respectively, measured in millimeters. Treatment is started 1-15 days after leukemic cell injection.
Nude mice are injected s.c. with 50 millions KU812 cells. Treatment is initiated after 1, 8 and 15 days respectively (groups I to III), in the presence of approximately, 50, 300 millions and 1 billion leukemic cells. […] To test this hypothesis mice in group II are treated for 11 or 18 days.
Mice are injected with KU812 cells and treatment is started 11 days later in the presence of an approximate tumor load of 400 mg.

The next test has as its target T1, bcr/abl (Homo sapiens, UniProt P00519).
T1 construct: Endogenous bcr/abl and tyrosine-phosphorylated bcr/abl are detected with the corresponding mouse monoclonal antibody; BCR N-terminal portion (fusion partner, human BCR P11274); endogenous in cells; host or cells: KU812 (DSMZ ACC 378), in culture or as subcutaneous tumour in CD1 nu/nu mice; the other entry of the earlier key: BCR (P11274, Breakpoint cluster region protein)
Briefly: In vitro bcr/abl autophosphorylation in KU812 cells (anti-phosphotyrosine western blot). As to conditions: erythromycin base 100 μM, STI571 3 μM, AGP 2 mg/ml, 1 hour. The class given is cell-based. (In general: Immunoblotting shows a protein as a band on a membrane.)

The test system of the next test is KU812 cells. Briefly: Tritiated thymidine uptake in vitro proliferation assay. As to conditions: erythromycin 5 to 30 μM, STI571 1 μM, AGP 1 mg/ml.

T1 sequence (P00519 with tags, fused parts or gaps): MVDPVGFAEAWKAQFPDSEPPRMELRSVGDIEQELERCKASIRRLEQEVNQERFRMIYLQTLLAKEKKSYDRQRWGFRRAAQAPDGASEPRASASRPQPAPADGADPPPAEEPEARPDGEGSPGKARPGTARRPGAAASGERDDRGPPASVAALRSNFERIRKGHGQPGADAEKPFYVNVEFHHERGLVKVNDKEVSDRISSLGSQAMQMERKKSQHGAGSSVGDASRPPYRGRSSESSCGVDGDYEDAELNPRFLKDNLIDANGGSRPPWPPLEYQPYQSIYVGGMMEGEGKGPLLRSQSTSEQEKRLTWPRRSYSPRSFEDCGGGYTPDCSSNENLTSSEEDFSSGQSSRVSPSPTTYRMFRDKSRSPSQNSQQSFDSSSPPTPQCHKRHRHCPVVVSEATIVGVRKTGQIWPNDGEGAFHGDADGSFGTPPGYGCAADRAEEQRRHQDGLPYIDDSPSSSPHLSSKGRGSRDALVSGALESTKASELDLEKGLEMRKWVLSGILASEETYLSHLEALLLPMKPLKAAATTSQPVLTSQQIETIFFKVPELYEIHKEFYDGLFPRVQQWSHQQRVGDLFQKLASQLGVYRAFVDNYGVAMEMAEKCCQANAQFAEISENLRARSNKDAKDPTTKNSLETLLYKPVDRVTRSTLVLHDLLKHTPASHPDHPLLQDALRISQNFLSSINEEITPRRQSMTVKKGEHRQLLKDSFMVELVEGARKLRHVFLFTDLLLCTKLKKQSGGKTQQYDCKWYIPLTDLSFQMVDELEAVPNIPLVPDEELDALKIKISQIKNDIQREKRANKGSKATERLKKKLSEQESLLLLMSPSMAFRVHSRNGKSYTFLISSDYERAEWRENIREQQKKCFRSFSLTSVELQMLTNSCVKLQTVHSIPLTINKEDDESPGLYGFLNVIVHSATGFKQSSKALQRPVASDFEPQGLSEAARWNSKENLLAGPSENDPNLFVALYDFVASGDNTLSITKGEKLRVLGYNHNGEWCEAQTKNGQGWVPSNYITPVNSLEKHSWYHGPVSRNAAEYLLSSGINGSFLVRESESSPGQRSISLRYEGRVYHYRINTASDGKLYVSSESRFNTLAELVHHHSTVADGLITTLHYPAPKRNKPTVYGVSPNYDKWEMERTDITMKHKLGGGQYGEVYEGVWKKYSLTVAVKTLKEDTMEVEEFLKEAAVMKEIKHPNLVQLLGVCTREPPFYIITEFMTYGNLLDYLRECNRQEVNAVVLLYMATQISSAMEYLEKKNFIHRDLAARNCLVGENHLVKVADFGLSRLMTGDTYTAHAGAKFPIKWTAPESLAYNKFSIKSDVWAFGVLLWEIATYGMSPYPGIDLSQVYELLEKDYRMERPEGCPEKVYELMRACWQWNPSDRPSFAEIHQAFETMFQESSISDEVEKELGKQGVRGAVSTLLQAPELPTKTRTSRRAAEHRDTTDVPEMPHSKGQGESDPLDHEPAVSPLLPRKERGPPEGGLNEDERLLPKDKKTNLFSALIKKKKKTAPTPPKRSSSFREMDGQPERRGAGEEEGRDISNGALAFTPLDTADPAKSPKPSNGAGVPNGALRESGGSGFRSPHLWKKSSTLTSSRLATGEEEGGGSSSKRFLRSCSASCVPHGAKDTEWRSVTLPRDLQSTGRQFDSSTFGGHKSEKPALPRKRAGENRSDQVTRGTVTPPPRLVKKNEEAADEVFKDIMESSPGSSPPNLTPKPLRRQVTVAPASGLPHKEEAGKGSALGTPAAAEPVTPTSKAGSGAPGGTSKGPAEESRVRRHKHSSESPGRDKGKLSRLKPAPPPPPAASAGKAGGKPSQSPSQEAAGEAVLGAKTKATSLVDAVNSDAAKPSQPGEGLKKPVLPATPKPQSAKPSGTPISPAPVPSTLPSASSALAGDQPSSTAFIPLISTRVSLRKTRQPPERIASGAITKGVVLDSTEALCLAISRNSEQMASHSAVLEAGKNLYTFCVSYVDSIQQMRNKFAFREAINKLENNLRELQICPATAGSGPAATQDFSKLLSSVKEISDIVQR

Take `Cc1ccc(NC(=O)c2ccc(CN3CCN(C)CC3)cc2)cc1Nc1nccc(-c2cccnc2)n1` [STI571]: in the test on KU812 leukemic cells (160 mg/kg every 8 hours for 11 days starting 24 hours after cell injection), the “Animals that developed tumor growth, non pretreated mice” value is given as 0/14. Besides, in the test with KU812 leukemic cells (160 mg/kg p.o. every 8 hours for 11 days, sentence follows the group II relapse rate), the “Cure, group printed as 'group II'” value is listed as “no cure is ever observed”. For the same compound, the “Cured animals, controls not pretreated” value with KU812 leukemic cells (injected with KU812, treated with STI571 24 hours later) was 16/16. Further, the “Animals with tumor growth, pretreated mice” value in the test with KU812 leukemic cells (pretreated with STI571, then 160 mg/kg every 8 hours for 11 days starting 24 hours after injection, p<0.05) was 7/14. For the same compound, the “Cured animals, pretreated with STI571” value in the test on KU812 leukemic cells (pretreated, injected with KU812, treated 24 hours later, p<0.01 vs controls) was 8/16. In the test on KU812 leukemic cells (same 11 day regimen, started when tumors measurable again), the “Response of relapsed tumors to re-treatment” value is recorded as “respond poorly to the new treatment”. Also, the “Cure, group I” value in the test with KU812 leukemic cells (treatment started 1 day after cell injection, 160 mg/kg p.o. every 8 hours for 11 days) is on record as “reproducibly cured”. For the same compound, the “Animals showing disappearance of the tumor / tumor free” value with KU812 leukemic cells (treatment started 11 days after injection, tumor load about 400 mg, every 8 hours for 18 days) is 5/15. In addition, in the test on KU812 leukemic cells (treatment started at day 11, 18 days of treatment, relapse between day 25 and 40), the “Number of animals that relapsed” value came out at 4 animals. For the same compound, the “Animals cured at last day of follow up (day 120)” value in the test with KU812 leukemic cells (treatment started at day 11, tumor load about 400 mg, 18 days, p<0.01 between groups) was 1/13. The “Cure of animals bearing large tumors” value in the test with KU812 leukemic cells (tumors >400 mg at start of treatment) is “no animal was cured”.
`CC[C@H]1OC(=O)[C@H](C)[C@@H](O[C@H]2C[C@@](C)(OC)[C@@H](O)[C@H](C)O2)[C@H](C)[C@@H](O[C@@H]2O[C@H](C)C[C@H](N(C)C)[C@H]2O)[C@](C)(O)C[C@@H](C)C(=O)[C@H](C)[C@@H](O)[C@]1(C)O` [erythromycin, Erythromycin]: in the test on KU812 leukemic cells (control groups, erythromycin in methyl cellulose 5%, not shown), the “Tumor regression, erythromycin alone” value is given as “do not show any evidence of tumor regression”. The “Effect of erythromycin on STI571 block of bcr/abl kinase activity in presence of AGP” value on bcr/abl was “STI571 activity can be restored”. Besides, the “Effect of erythromycin on AGP-mediated block of STI571 activity on KU812 proliferation” value in the test with KU812 cells is given as “restores sensitivity to STI571 with a clear dose response relationship”.

For the origin of these results see patent publication US20030125343A1, “Combinations of receptor tyrosine kinase inhibitor with an a1-acidic glycoprotein binding compound” (priority 1999, published 2003).
